Biological target: SAE1 (Homo sapiens (Human), UniProt Q9UBE0+Q9UBT2)
Experiment: SAE High Throughput Biochemical Assay (HTRF), 15 min preincubation
Conditions: read-out: 15 min preincubation HTRF IC50 (μM) Ave, SAE1 12.5 nM, ATP 100 μM
Protocol: Assay buffer was prepared [50 mM HEPES, pH 7.5, 0.1% BSA and 10 mM MgCl2] as was the Stop Buffer [100 mM HEPES, pH 7.5, 0.05% Tween20, and 410 mM KF]. The 2×Reaction Buffer [80 nM SUMO-GST, 80 nM UBC9-His, 200 μM ATP and diluted in Assay Buffer] and Antibody Reaction Mix [13.34 nM anti-GSTXL665, 1.66 nM anti-His EuK and Diluted in Stop Buffer] were also prepared. Compounds were dissolved at 200×in DMSO in a 384-well plate. Serial dilutions were performed in DMSO for each compound, and then each concentration was diluted another 50-fold in Assay Buffer, to 4× the final concentration. 2.5 μL of each concentration was transferred into its own well in a 384-well plate. SAE1 was then diluted to 4× in Assay Buffer, and 2.5 μL of 4×SAE1 was mixed into each compound-containing well. After incubating for 15 minutes at RT, 5 μL of 2×Reaction Buffer was mixed into every well. Then after another 45 minutes at RT, 10 μL of Antibody Reaction Mix was added and mixed into every well. This plate was then read on an HTRF-compatible plate reader after 2 hours at RT, and again after sitting at RT overnight. [Final Component Concentrations: SAE1: 12.5 nM; SUMO-GST: 40 nM; UBC9-His: 40 nM; Anti-GST-XL665: 6.67 nM; Anti-His-EuK: 0.83 nM; and ATP: 100 μM] Alternatively, the compounds are tested at a single concentration of 25 micromolar and the percent of control is measured.

SAE1, sequence (Q9UBE0 whole entry): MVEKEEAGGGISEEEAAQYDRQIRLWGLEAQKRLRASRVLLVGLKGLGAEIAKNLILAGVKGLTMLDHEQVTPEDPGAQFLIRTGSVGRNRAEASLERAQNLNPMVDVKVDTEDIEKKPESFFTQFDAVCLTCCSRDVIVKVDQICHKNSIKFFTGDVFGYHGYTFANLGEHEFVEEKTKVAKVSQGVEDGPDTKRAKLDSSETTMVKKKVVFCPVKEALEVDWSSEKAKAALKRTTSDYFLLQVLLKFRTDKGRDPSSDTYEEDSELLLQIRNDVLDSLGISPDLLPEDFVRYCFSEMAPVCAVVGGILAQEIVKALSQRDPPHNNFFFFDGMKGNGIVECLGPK
SAE1, sequence (Q9UBT2 whole entry): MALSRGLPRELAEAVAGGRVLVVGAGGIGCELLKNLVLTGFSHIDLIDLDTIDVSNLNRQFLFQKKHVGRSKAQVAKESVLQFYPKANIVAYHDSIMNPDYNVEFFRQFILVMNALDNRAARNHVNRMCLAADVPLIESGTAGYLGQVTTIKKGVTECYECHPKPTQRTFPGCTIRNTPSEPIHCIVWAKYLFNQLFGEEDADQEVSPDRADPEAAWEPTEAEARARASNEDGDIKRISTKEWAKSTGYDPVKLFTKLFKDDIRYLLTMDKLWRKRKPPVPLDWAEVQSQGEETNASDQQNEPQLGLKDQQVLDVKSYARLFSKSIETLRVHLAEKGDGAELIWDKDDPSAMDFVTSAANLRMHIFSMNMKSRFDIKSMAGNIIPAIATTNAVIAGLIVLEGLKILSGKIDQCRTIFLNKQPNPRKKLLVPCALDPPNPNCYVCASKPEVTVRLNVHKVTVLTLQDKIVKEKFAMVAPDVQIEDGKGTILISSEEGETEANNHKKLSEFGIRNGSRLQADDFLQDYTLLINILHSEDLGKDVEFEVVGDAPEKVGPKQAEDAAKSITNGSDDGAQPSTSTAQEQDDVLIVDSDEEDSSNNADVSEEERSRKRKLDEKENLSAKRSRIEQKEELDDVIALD

Row | SMILES | IC50
1 | CCn1cc(-c2ccccc2[C@@H]2CN(C(=O)/C=C/[C@H](COC)NC)Cc3sc(C#N)cc32)c(C(F)(F)F)n1 [Example 86, (S)-4-(2-(1-Ethyl-3-(trifluoromethyl)-1 H-pyrazol-4-yl)phenyl)-6-((R, E)-5-methoxy-4-(methylamino)pent-2-enoyl)-4,5,6,7-tetrahydrothieno[2,3-c]pyridine-2-carbonitrile] | 9.1 µM
2 | CCn1cc(-c2ccccc2[C@@H]2CN(C(=O)/C=C/[C@@H](C)NC)Cc3sc(C#N)cc32)c(C(F)(F)F)n1 [Example 87, (S)-4-(2-(1-Ethyl-3-(trifluoromethyl)-1 H-pyrazol-4-yl)phenyl)-6-((R, E)-4-(methylamino)pent-2-enoyl)-4,5,6,7-tetrahydrothieno[2,3-c]pyridine-2-carbonitrile] | 18.2 µM
3 | CCn1cc(-c2c(F)cccc2[C@@H]2CN(C(=O)/C=C/[C@@H](C)NC)Cc3sc(C#N)cc32)c(C(F)(F)F)n1 [Example 88, (S)-4-(2-(1-Ethyl-3-(trifluoromethyl)-1H pyrazol-4-yl)-3-fluorophenyl)-6-((R,E)-4-(methylamino)pent-2-enoyl)-4,5,6,7-tetrahydrothieno[2,3-c]pyridine-2-carbonitrile] | 2.7 µM
4 | CCn1cc(-c2ccccc2[C@@H]2CN(C(=O)/C=C/CNC3(C)COC3)Cc3sc(C#N)cc32)c(C(F)(F)F)n1 [Example 95, (S, E)-4-(2-(1-Ethyl-3-(trifluoromethyl)-1 H-pyrazol-4-yl)phenyl)-6-(4-((3-methyloxetan-3-yl)amino)but-2-enoyl)-4,5,6,7-tetrahydrothieno[2,3-c]pyridine-2-carbonitrile] | 15.6 µM
5 | CCn1cc(-c2ccccc2[C@@H]2CN(C(=O)/C=C/CNC3(C)CCOC3)Cc3sc(C#N)cc32)c(C(F)(F)F)n1 (stereo partly drawn) [Example 97, (4S)-4-(2-(1-Ethyl-3-(trifluoromethyl)-1 H-pyrazol-4-yl)phenyl)-6-((E)-4-((3-methyltetrahydrofuran-3-yl)amino)but-2-enoyl)-4,5,6,7-tetrahydrothieno[2,3-c]pyridine-2-carbonitrile] | 2.76 µM
6 | CCn1cc(-c2ccccc2[C@@H]2CN(C(=O)/C=C/C3(N)CC3)Cc3sc(C#N)cc32)c(C(F)(F)F)n1 [Example 109, (S, E)-6-(3-(1-Aminocyclopropyl)acryloyl)-4-(2-(1-ethyl-3-(trifluoromethyl)-1 H-pyrazol-4-yl)phenyl)-4,5,6,7-tetrahydrothieno[2,3-c]pyridine-2-carbonitrile] | 26.5 µM
7 | CCn1cc(-c2ccccc2[C@@H]2CN(C(=O)C#CC3(N)CCC3)Cc3sc(C#N)cc32)c(C(F)(F)F)n1 [Example 137, (S)-6-(3-(1-Aminocyclobutyl)propioloyl)-4-(2-(1-ethyl-3-(trifluoromethyl)-1 H pyrazol-4-yl)phenyl)-4,5,6,7-tetrahydrothieno[2,3-c]pyridine-2-carbonitrile] | 0.36 µM
8 | CCn1cc(-c2ccccc2[C@@H]2CN(C(=O)C#CCN3CCN(C)CC3)Cc3sc(C#N)cc32)c(C(F)(F)F)n1 [Example 143, (S)-4-(2-(1-Ethyl-3-(trifluoromethyl)-1 H pyrazol-4-yl)phenyl)-6-(4-(4-methylpiperazin-1-yl)but-2-ynoyl)-4,5,6,7-tetrahydrothieno[2,3-c]pyridine-2-carbonitrile] | 2.18 µM
9 | CCn1cc(-c2ccccc2[C@@H]2CN(C(=O)C#CC3CCCNC3)Cc3sc(C#N)cc32)c(C(F)(F)F)n1 (stereo partly drawn) [Example 145, (4S)-4-(2-(1-Ethyl-3-(trifluoromethyl)-1 H-pyrazol-4-yl)phenyl)-6-(3-(piperidin-3-yl)propioloyl)-4,5,6,7-tetrahydrothieno[2,3-c]pyridine-2-carbonitrile] | 5.62 µM
10 | CN(C)C/C=C/C(=O)N1Cc2sc(C#N)cc2C(c2ccccc2-c2c[nH]nc2C(F)(F)F)C1 (stereo not shown) [Example 152, (E)-6-(4-(Dimethylamino)but-2-enoyl)-4-(2-(3-(trifluoromethyl)-1H-pyrazol-4-yl)phenyl)-4,5,6,7-tetrahydrothieno[2,3-c]pyridine-2-carbonitrile] | 10.4 µM
11 | CN(C)C/C=C/C(=O)N1Cc2sc(C#N)cc2[C@H](c2ccccc2-c2c[nH]nc2C(F)(F)F)C1 [Example 153, (S, E)-6-(4-(Dimethylamino)but-2-enoyl)-4-(2-(3-(trifluoromethyl)-1 H-pyrazol-4-yl)phenyl)-4,5,6,7-tetrahydrothieno[2,3-c]pyridine-2-carbonitrile] | 9.68 µM
12 | CN(C)C/C=C/C(=O)N1Cc2sc(C#N)cc2C(c2ccccc2-c2cn(CCC#N)nc2C(F)(F)F)C1 (stereo not shown) [Example 154, (E)-4-(2-(1-(2-Cyanoethyl)-3-(trifluoromethyl)-1H pyrazol-4-yl)phenyl)-6-(4-(dimechylamino)but-2-enoyl)-4,5,6,7-tetrahydrothieno[2,3-c]pyridine-2-carbonitrile] | 7.34 µM
13 | CN(C)C/C=C/C(=O)N1Cc2sc(C#N)cc2[C@H](c2ccccc2-c2cn(-c3ccncc3F)nc2C(F)(F)F)C1 [Example 157, (S,E)-6-(4-(Dimethylamino)but-2-enoyl)-4-(2-(1-(3-fluoropyridin-4-yl)-3-(trifluoromethyl)-1H pyrazol-4-yl)phenyl)-4,5,6,7-tetrahydrothieno[2,3-c]pyridine-2-carbonitrile] | 18.6 µM
14 | CN(C)C/C=C/C(=O)N1Cc2sc(C#N)cc2[C@H](c2ccccc2-c2cn(-c3ncccc3F)nc2C(F)(F)F)C1 [Example 158, (S,E)-6-(4-(Dimethylamino)but-2-enoyl)-4-(2-(1-(3-fluoropyridin-2-yl)-3-(trifluoromethyl)-1H pyrazol-4-yl)phenyl)-4,5,6,7-tetrahydrothieno[2,3-c]pyridine-2-carbonitrile] | 6.37 µM
15 | CN(C)C/C=C/C(=O)N1Cc2sc(C#N)cc2[C@H](c2ccccc2-c2cn(-c3ccnc(N)c3)nc2C(F)(F)F)C1 [Example 160, (S, E)-4-(2-(1-(2-Aminopyridin-4-yl)-3-(trifluoromethyl)-1 H-pyrazol-4-yl)phenyl)-6-(4-(dimethylamino)but-2-enoyl)-4,5,6,7-tetrahydrothieno[2,3-c]pyridine-2-carbonitrile] | 24.4 µM
16 | CNC(=O)C(C)n1cc(-c2ccccc2[C@@H]2CN(C(=O)/C=C/CN(C)C)Cc3sc(C#N)cc32)c(C(F)(F)F)n1 (stereo partly drawn) [Example 161, 2-(4-(2-((S)-2-Cyano-6-((E)-4-(dimethylamino)but-2-enoyl)-4,5,6,7-tetrahydrothieno[2,3-c]pyridin-4-yl)phenyl)-3-(trifluoromethyl)-1 H-pyrazol-1-yl)-N-methylpropanamide] | 15.8 µM
17 | CN(C)C/C=C/C(=O)N1Cc2sc(C#N)cc2[C@H](c2ccccc2-c2cn(CC(N)=O)nc2C(F)(F)F)C1 [Example 162, (S, E)-2-(4-(2-(2-Cyano-6-(4-(dimethylamino)but-2-enoyl)-4,5,6,7-tetrahydrothieno[2,3-c]pyridin-4-yl)phenyl)-3-(trifluoromethyl)-1 H-pyrazol-1-yl)acetamide] | 11.6 µM
18 | CC(C(=O)N(C)C)n1cc(-c2ccccc2[C@@H]2CN(C(=O)/C=C/CN(C)C)Cc3sc(C#N)cc32)c(C(F)(F)F)n1 (stereo partly drawn) [Example 163, 2-(4-(2-((S)-2-Cyano-6-((E)-4-(dimethylamino)but-2-enoyl)-4,5,6,7-tetrahydrothieno[2,3-c]pyridin-4-yl)phenyl)-3-(trifluoromethyl)-1 H-pyrazol-1-yl)-N, N-dimethylpropanamide] | 8.68 µM
19 | CC(C(=O)N(C)C)n1cc(-c2ccccc2[C@@H]2CN(C(=O)/C=C/CN(C)C)Cc3sc(C#N)cc32)c(C(F)(F)F)n1 (stereo partly drawn) [Example 164, 2-(4-(2-((S)-2-Cyano-6-((E)-4-(dimethylamino)but-2-enoyl)-4,5,6,7-tetrahydrothieno[2,3-c]pyridin-4-yl)phenyl)-3-(trifluoromethyl)-1 H-pyrazol-1-yl)-N, N-dimethylpropanamide] | 10.9 µM
20 | CN(C)C/C=C/C(=O)N1Cc2sc(C#N)cc2[C@H](c2ccccc2-c2cn(Cc3ncno3)nc2C(F)(F)F)C1 [Example 166, (S,E)-4-(2-(1-((1,2,4-Oxadiazol-5-yl)methyl)-3-(trifluoromethyl)-1H pyrazol-4-yl)phenyl)-6-(4-(dimethylamino)but-2-enoyl)-4,5,6,7-tetrahydrothieno[2,3-c]pyridine-2-carbonitrile] | 19.9 µM
21 | CN(C)C/C=C/C(=O)N1Cc2sc(C#N)cc2[C@H](c2ccccc2-c2cn(S(C)(=O)=O)nc2C(F)(F)F)C1 [Example 168, (S, E)-6-(4-(Dimethylamino)but-2-enoyl)-4-(2-(1-(methylsulfonyl)-3-(trifluoromethyl)-1 H pyrazol-4-yl)phenyl)-4,5,6,7-tetrahydrothieno[2,3-c]pyridine-2-carbonitrile] | 18.8 µM
22 | CCOC(=O)Cn1cc(-c2ccccc2[C@@H]2CN(C(=O)/C=C/CN(C)C)Cc3sc(C#N)cc32)c(C(F)(F)F)n1 [Example 169, Ethyl (S,E)-2-(4-(2-(2-cyano-6-(4-(dimethylamino)but-2-enoyl)-4,5,6,7-tetrahydrothieno[2,3-c]pyridin-4-yl)phenyl)-3-(trifluoromethyl)-1 H-pyrazol-1-yl)acetate] | 14.5 µM

From patent US20240360148A1 (SUVALENT THERAPEUTICS, INC., priority 2021, published 2024)
